Assay results: PubChem BioAssay (NCI)
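A five-concentration, 48-hour dose response in 96-well plates underlies each endpoint, interpolated linearly between surrounding concentrations. GI50 is the concentration that inhibits growth by half. TGI: total growth inhibition.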

Assays:
Assay in all cases: inhibition of tumour cell growth, NCI panel, 48 h
OVCAR-8 ovarian = test system: OVCAR-8 ovarian
MOLT-4 leukemia = test system: MOLT-4 leukemia
HT29 colon = test system: HT29 colon
UACC-62 melanoma = test system: UACC-62 melanoma
MCF7 breast = test system: MCF7 breast
M14 melanoma = test system: M14 melanoma
SNB-75 CNS = test system: SNB-75 CNS
A549 NSCLC = test system: A549 NSCLC
SK-MEL-5 melanoma = test system: SK-MEL-5 melanoma
M19-MEL melanoma = test system: M19-MEL melanoma

Compound	TGI (OVCAR-8 ovarian) [µM]	TGI (MOLT-4 leukemia) [µM]	TGI (HT29 colon) [µM]	TGI (UACC-62 melanoma) [µM]	TGI (MCF7 breast) [µM]	TGI (M14 melanoma) [µM]	TGI (SNB-75 CNS) [µM]	TGI (A549 NSCLC) [µM]	TGI (SK-MEL-5 melanoma) [µM]	TGI (M19-MEL melanoma) [µM]	GI50 (MOLT-4 leukemia) [µM]	GI50 (UACC-62 melanoma) [µM]	GI50 (MCF7 breast) [µM]	GI50 (SK-MEL-5 melanoma) [µM]
Cc1cc(O)c2c(c1)C(C1OC(CO)C(O)C(O)C1O)c1cc(O)cc(O)c1C2=O (centres undefined)	> 100	> 100	> 100	> 100	> 100	> 100	> 100	> 100	> 100	–	–	–	–	–
CCCCC(O)(c1ccccc1)C(O)(c1ccccc1)c1c(F)c(F)c(F)c(F)c1F (centres undefined)	55.5	45.6	32.3	39.2	53.1	> 100	> 100	> 100	35.5	–	–	–	–	–
COc1ccc(OC)c(N=Cc2cc(OC)c(OC)c(OC)c2)c1	> 100	> 100	> 100	> 100	> 100	> 100	> 100	> 100	> 100	–	–	–	–	–
O=c1ccn(Cc2ccccc2CCl)c(=O)[nH]1	55.8	> 100	68.6	63.4	77.9	73.9	> 100	> 100	23.3	–	–	–	–	–
CCCCCCCCCC(=O)NCCc1c[nH]c2ccc(OC)cc12	32	> 100	> 100	30.4	33.7	34	44	40.1	34.3	–	–	–	–	–
Brc1c2c(c(Br)c3nsnc13)N=S=N2	79.7	68.9	> 60.4	33.5	> 65.6	50.5	63.7	> 100	42.5	–	–	–	–	–
CCOc1ccc(N2C(=O)NC3(c4ccccc4)N(C)C(=O)N(C)C23c2ccccc2)cc1 (centres undefined)	> 100	> 100	> 100	> 100	> 100	> 100	63.5	> 100	> 100	–	–	–	–	–
O=S(=O)(O)c1ccc(Nc2ccnc3ccccc23)cc1	> 100	> 100	> 100	> 100	> 100	> 100	> 100	> 100	> 100	–	–	–	–	–
CCCCCCc1cc2cc(C(=O)NCc3ccccc3)c(=N)oc2cc1O	> 100	> 100	> 100	> 100	> 100	> 100	> 100	> 100	> 100	–	–	–	–	–
Cc1cc(N(CCC#N)CCC#N)ccc1/C=C1N=C(/C=C/c2ccccc2)N(c2ccc(S(N)(=O)=O)cc2)C\1=O	> 100	> 100	> 100	> 100	–	> 100	> 100	> 100	> 100	> 100	–	–	–	–
O=S1(=O)OCCOS(=O)(=O)C1(Cl)Cl	> 100	> 100	> 100	> 100	–	> 100	> 100	> 100	> 100	> 100	–	–	–	–
Clc1cc2nc(C3CCCCO3)[nH]c2cc1Cl (centres undefined)	> 73	> 100	25.8	> 100	36.5	> 100	58.4	> 100	> 100	–	–	–	–	–
COc1ccc(C2CC(c3ccc(NS(=O)(=O)c4cc([N+](=O)[O-])ccc4C)cc3)=NN2S(=O)(=O)c2cc([N+](=O)[O-])ccc2C)cc1 (centres undefined)	> 100	> 100	> 100	> 100	> 100	> 100	> 100	> 100	> 100	–	–	–	–	–
Cc1cn(CC2=NC3CCCCC3N2)c(=O)[nH]c1=O (centres undefined)	> 100	> 100	> 100	> 100	> 100	> 100	> 100	> 100	> 100	–	–	–	–	–
CC(NC(=O)C(N)CC(=O)O)C(=O)OC12CC3CC(CC(C3)C1)C2 (centres undefined)	> 100	> 100	> 100	> 100	> 100	> 100	> 100	> 100	> 100	–	–	–	–	–
O=[N+]([O-])c1cnc(N(CCO)CCO)s1	> 100	> 100	> 100	> 100	> 100	> 100	0.341	> 100	> 100	–	–	–	–	–
C=C[C@]1(C)CC(=O)C(C(C)C=O)[C@]12C(=O)Oc1cccc(C)c1C2=O (some centres undefined)	31.5	> 100	27.6	31	32.7	29.8	30.8	44.4	25.9	–	–	–	–	–
O=C(/C=C\c1ccsc1)c1ccccc1	27.2	> 100	15.5	24.6	6.72	21.8	24.3	8.48	27.3	–	–	–	–	–
O=C(O)C1CC(C2CCCCN2)CN2CCCCC12 (centres undefined)	> 100	> 100	> 100	> 100	> 100	> 100	> 100	> 100	> 100	–	–	–	–	–
CCCC(=O)N(C)N=Nc1ccc(C(=O)OCC)cc1	> 100	> 100	> 100	> 100	> 100	> 100	> 100	> 100	> 100	–	–	–	–	–
CN1CN(c2ccccc2)C2(CCN(C3Nc4ccccc4O3)CC2)C1=O (centres undefined)	82.1	92.2	33	31	38.6	46.2	62.3	> 100	32	–	–	–	–	–
C[C@@H](Oc1ccc(Oc2cnc3ccc(Cl)cc3n2)cc1)C(=O)O	> 100	> 100	> 100	> 100	> 100	> 100	> 100	> 100	> 100	–	> 23.7	46.4	18.3	> 82.1

Compound	TGI (OVCAR-8 ovarian) [µM]	TGI (MOLT-4 leukemia) [µM]	TGI (HT29 colon) [µM]	TGI (UACC-62 melanoma) [µM]	TGI (MCF7 breast) [µM]	TGI (M14 melanoma) [µM]	TGI (SNB-75 CNS) [µM]	TGI (A549 NSCLC) [µM]	TGI (SK-MEL-5 melanoma) [µM]	TGI (M19-MEL melanoma) [µM]	GI50 (MOLT-4 leukemia) [µM]	GI50 (UACC-62 melanoma) [µM]	GI50 (MCF7 breast) [µM]	GI50 (SK-MEL-5 melanoma) [µM]
CC(C)C1CC(CO)(CNc2nc(N)nc(Cl)c2/C=N\O)C1 (centres undefined)	50.3	63	15.5	25.4	4.27	26.1	43.6	18.8	2.82	–	–	–	–	–
COc1ccc(-c2[nH]c(-c3ccc(OC)cc3)c(-c3ccccn3)c2-c2ccccn2)cc1	> 100	> 100	49.3	> 100	> 100	> 100	> 100	> 100	32.2	–	–	–	–	–
COC(=O)[C@H](C)NC(=O)C1(CNC(=O)[C@H](C)NC(=O)OC(C)(C)C)Cc2ccccc2-c2ccccc2C1	18.2	37.6	39.8	34	> 84.3	> 78.5	> 60.2	48.8	> 55	–	–	–	–	–
COc1ccc(/C=C2\C[C@H]3[C@@H]4CC=C5C[C@@H](OC(C)=O)CC[C@]5(C)[C@H]4CC[C@]3(C)C2=O)cc1OC	> 100	> 100	> 100	> 100	> 100	> 100	> 100	> 100	26.4	–	–	–	–	–
CCOC(=O)NC(Nc1ccc(S(=O)(=O)Nc2ccc(OC)nn2)cc1)(C(F)(F)F)C(F)(F)F	> 100	49.5	> 100	> 100	> 100	50.4	> 100	> 100	32	–	–	–	–	–
Cc1nn(C(=O)c2ccc(Cl)cc2)c2c1C(c1ccccc1O)SC(N)=N2 (centres undefined)	> 10	> 10	> 10	> 10	> 10	> 10	> 10	> 10	> 10	–	–	–	–	–
COc1ccc(C(=O)N2CCN(c3ccc4c(c3)OCC(=O)N4)CC2)cc1OC	> 100	> 100	> 100	> 100	> 100	> 100	> 100	> 100	> 100	–	–	–	–	–
COc1ccc2nc3c(C)cc4ccccc4n3c2c1	> 100	> 100	> 100	> 100	> 100	> 100	> 100	> 100	> 100	–	–	–	–	–
Cc1ccc(S(=O)(=O)NN=C2C(C)(C)CC2(C)C)cc1	> 100	> 100	> 100	> 100	> 100	> 100	> 100	> 100	> 100	–	–	–	–	–
O=S(=O)(Nc1nccs1)c1ccc([As](=O)(O)O)cc1	> 100	> 100	> 100	> 100	> 100	> 100	> 100	> 100	> 100	–	–	–	–	–
CC1OC(OC2C(OC(=O)[C@]34CCC(C)(C)CC3C3=CCC5[C@@]6(C)C[C@H](O)[C@H](OC7OC(COC8OC(CO)C(O)C(O)C8O)C(O)C(O)C7O)[C@@](C)(C(=O)O)C6CC[C@@]5(C)C3(C)CC4)OCC(O)C2O)C(O)C(O)C1OC1OCC(O)C(O)C1O (some centres undefined)	> 100	> 100	> 100	> 100	–	–	> 100	> 100	> 100	> 100	–	–	–	–
CC(=O)Nc1c2sscc-2n(C)c1=O	1.36	0.275	0.692	5.36	1.69	0.865	3.05	3.56	3.38	–	–	–	–	–
CCOC(=O)c1cc(C2=CCNC2=O)c(-c2cc(C)no2)[nH]1	> 100	> 100	> 100	> 100	> 100	> 100	> 100	> 100	> 100	–	–	–	–	–
O=C(NNC(=S)Nc1ccc(Cl)cc1)C12CC3CC(CC(C3)C1)C2	> 44.6	10.7	21.4	21.8	> 56.5	26.6	51.1	24.9	15.5	–	–	–	–	–
O=C1C=CC(=O)c2c(O)c(NCCO)c(Cl)c(O)c21	> 10	> 10	7.43	3.47	3.94	4.78	> 6.54	3.78	2.75	–	–	–	–	–
O=C(CCc1ccc(O)c(O)c1)NCCc1ccccc1	> 100	> 100	> 72.2	> 65.2	35	> 100	> 100	> 100	> 48.7	–	–	–	–	–
Cc1ccc(N=NN(C)C(C)C(O)Cc2ccccc2)cc1 (centres undefined)	> 100	> 100	> 100	> 100	> 100	> 100	> 100	> 100	> 100	–	–	–	–	–
Cc1c2oc3c(C)cnc(C(=O)NC4C(=O)NC(C(C)C)C(=O)N5CCCC5C(=O)N(C)CC(=O)N(C)C(C(C)C)C(=O)OC4C)c3nc-2c(C(=O)NC2C(=O)NC(C(C)C)C(=O)N3CCCC3C(=O)N(C)CC(=O)N(C)C(C(C)C)C(=O)OC2C)c(N)c1=O (centres undefined)	> 44.5	0.675	> 75	12.4	> 75	16.8	21.3	> 75	21.6	–	–	–	–	–
Cc1ccc(NC(=O)CC(=O)N2N=C(N3CCCCC3)CC2c2ccccc2)cc1 (centres undefined)	> 100	> 100	> 100	> 100	> 100	> 100	> 100	> 100	> 100	–	–	–	–	–
Cc1n[nH]c(=O)n1Nc1ccccc1	> 100	> 100	> 100	> 100	> 100	> 100	> 100	> 100	> 100	–	–	–	–	–
O=C(CC(Cc1ccccc1)c1ccc(Oc2ccccc2)cc1)Nc1cccc(Cl)c1 (centres undefined)	> 100	39.3	> 100	14.8	18.3	> 100	56.6	> 100	26.8	–	–	–	–	–
CC1(c2nc3ccccc3[nH]2)CCC(C#N)C(C)(C)O1 (centres undefined)	> 100	> 100	> 100	> 100	> 100	> 100	> 100	> 100	> 100	–	–	–	–	–
